Laboratory results taken from patent publication US11091478B2 (Fochon Pharmaceuticals, Ltd., priority 2017, dated 2021).
Values belong to the compound of their own block, whether it stands above or below them.

Columns and labels:
RS4;11 cells = test: Cell proliferation assay (MTS), RS4;11 cells, 72 h; assay type: cell-based; settings: Homo sapiens, RS4-11, 72 h
Procedure, shortened: (§1)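 Cells in RPMI-1640 with 10% FBS were seeded at 5000/well, left overnight at 37° C., 5% CO2, then exposed to compound at 10000 down to 1.5 nM (nine concentrations) for 72 h (RS4;11) or 120 h (DOHH2). Viability was read by MTS, 2 h, absorbance at 490/650 nm; IC50 calculated.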

DOHH2 cells = test: Cell proliferation assay (MTS), DOHH2 cells, 120 h; assay type: cell-based; settings: Homo sapiens, DOHH-2, 120 h
Procedure, shortened: as §1

Compound: CC1(C)CCC(CN2CCN(c3ccc(C(=O)NS(=O)(=O)c4cc5c(c([N+](=O)[O-])c4)N[C@@H](C4CCN(C(=O)OC(C)(C)C)CC4)CO5)c(Oc4cnc5[nH]ccc5c4)c3)CC2)=C(c2ccc(Cl)cc2)C1 [Example 2-229, tert-butyl (S)-4-(7-(N-(2-((1H-pyrrolo[2,3-b]pyridin-5-yl)oxy)-4-(4-((4′-chloro-5,5-dimethyl-3,4,5,6-tetrahydro-[1,1′-biphenyl]-2-yl)meth-yl)piperazin-1-yl)benzoyl)sulfamoyl)-5-nitro-3,4-dihydro-2H-benzo[b][1,4]oxazin-3-yl)piperidine-1-carboxylate]
IC50 (RS4;11 cells): 0.038 µM | IC50 (DOHH2 cells): 0.001 µM

Compound: CC1(C)CCC(CN2CCN(c3ccc(C(=O)NS(=O)(=O)c4cc5c(c([N+](=O)[O-])c4)N[C@@H](CCN4CCOCC4)C5)c(Oc4cnc5[nH]ccc5c4)c3)CC2)=C(c2ccc(Cl)cc2)C1 [Example 1-16, (R)-2-((1H-pyrrolo[2,3-b]pyridin-5-yl)oxy)-4-(4-((4′-chloro-5,5-dimethyl-3,4,5,6-tetra-hydro-[1,1′-biphenyl]-2-yl)methyl)piperazin-1-yl)-N-((2-(2-morpholinoethyl)-7-nitro-indolin-5-yl)sulfonyl)benzamide]
IC50 (RS4;11 cells): 0.016 µM | IC50 (DOHH2 cells): 0.073 µM

Compound: CC1(C)CCC(CN2CCN(c3ccc(C(=O)NS(=O)(=O)c4cc5c(c([N+](=O)[O-])c4)N[C@@H](CN4CCC(C)(O)CC4)CO5)c(Oc4cnc5[nH]ccc5c4)c3)CC2)=C(c2ccc(Cl)cc2)C1 [Example 2-19, (S)-2-((1H-pyrrolo[2,3-b]pyridin-5-yl)oxy)-4-(4-((4′-chloro-5,5-dimethyl-3,4,5,6-tetra-hydro-[1,1′-biphenyl]-2-yl)methyl)piperazin-1-yl)-N-((3-((4-hydroxy-4-methylpiperidin-1-yl)methyl)-5-nitro-3,4-dihydro-2H-ben-zo[b][1,4]oxazin-7-yl)sulfonyl)benzamide]
IC50 (RS4;11 cells): 0.036 µM | IC50 (DOHH2 cells): 0.07 µM

Compound: CCC(=O)N1CCN(C[C@@H]2COc3cc(S(=O)(=O)NC(=O)c4ccc(N5CCN(CC6=C(c7ccc(Cl)cc7)CC(C)(C)CC6)CC5)cc4Oc4cnc5[nH]ccc5c4)cc([N+](=O)[O-])c3N2)CC1 [Example 2-92, (R)-2-((1H-pyrrolo[2,3-b]pyridin-5-yl)oxy)-4-(4-((4′-chloro-5,5-dimethyl-3,4,5,6-tetra-hydro-[1,1′-biphenyl]-2-yl)methyl)piperazin-1-yl)-N-((5-nitro-3-((4-propionylpiperazin-1-yl)methyl)-3,4-dihydro-2H-benzo[b] [1,4]oxazin-7-yl)sulfonyl)benzamide]
IC50 (RS4;11 cells): 0.005 µM | IC50 (DOHH2 cells): 0.079 µM

The next lines start with results.

IC50 (RS4;11 cells): 0.002 µM
Compound: CC1(C)CCC(CN2CCN(c3ccc(C(=O)NS(=O)(=O)c4cc5c(c([N+](=O)[O-])c4)N[C@@H](CN4C[C@H]6C[C@@H]4CO6)CO5)c(Oc4cnc5[nH]ccc5c4)c3)CC2)=C(c2ccc(Cl)cc2)C1 [Example 2-88, 2-((1H-pyrrolo[2,3-b]pyridin-5-yl)oxy)-N-(((S)-3-(((1R,4R)-2-oxa-5-azabicyclo[2.2.1]heptan-5-yl)methyl)-5-nitro-3,4-dihydro-2H-benzo[b][1,4]oxazin-7-yl)sulfonyl)-4-(4-((4′-chloro-5,5-dimethyl-3,4,5,6-tetrahydro-[1,1′-biphenyl]-2-yl)methyl)piperazin-1-yl) benzamide]
IC50 (DOHH2 cells): 0.014 µM

IC50 (RS4;11 cells): 0.045 µM
Compound: CC1(C)CCC(CN2CCN(c3ccc(C(=O)NS(=O)(=O)c4cc5c(c([N+](=O)[O-])c4)N[C@H](CN4CCC(N=S(C)(C)=O)CC4)CO5)c(Oc4cnc5[nH]ccc5c4)c3)CC2)=C(c2ccc(Cl)cc2)C1 [Example 2-150]
IC50 (DOHH2 cells): 0.067 µM
